A melting point compilation (Tetko et al.)

| Compound | melting point |
| --- | --- |
| CC1CCCC1=O (stereo not given) | -75 °C |
| Cc1cnc(Cl)nc1Cl | 26 °C |
| COc1cccc(CO)c1OC | 48 to 51 °C |
| CC(C)(C)c1cc(C(C)(C)C)c2oc3c(C(C)(C)C)cc(C(C)(C)C)c(=O)c-3nc2c1 | 210 °C |
| Cc1ccncc1/C=C/C(=O)O | 137 °C |
| OC1CCSCC1 | 50 to 51 °C |
| CCCN(CCCl)c1c([N+](=O)[O-])cc(C(F)(F)F)cc1[N+](=O)[O-] | 42 °C |
| CC(C)CCC(C)C | -91 °C |
| Cc1nc(C(F)(F)F)c(C(=O)Nc2c(Br)cc(OC(F)(F)F)cc2Br)s1 | 178 °C |
| O=P(O)(O)CCP(=O)(O)O | 218 °C |
| COC(=O)c1ccc(Br)cn1 | 101 °C |
| CC(=O)C=CC1=C(C)CCCC1(C)C | -49 °C |
| COc1cccc(C(=O)NN(C(=O)c2cc(C)cc(C)c2)C(C)(C)C)c1C | 204 °C |
| OCc1cc(C(F)(F)F)ccc1Br | 72 °C |
| Cc1ccc(S(=O)(=O)C2(C(=O)OC(C)C)CC2)cc1 | 65.5 °C |
| CC(=O)OCC(=O)C1(O)C(C)CC2C3CCC4=CC(=O)C=CC4(C)C3(F)C(O)CC21C (stereo not given) | 263 °C |
| COc1cc(C=O)cc([N+](=O)[O-])c1O | 176 °C |
| CCCCC(CC)COC(=O)OOC(C)(C)C (stereo not given) | -50 °C |
| Clc1cc(Br)ccc1Br | 40 °C |
| CN(C)CCOc1ccccc1C(=O)O | 108 to 109 °C |
| O=C1CC2OCC=C3CN4CCC56c7ccccc7N1C5C2C3CC46 (stereo not given) | 287 °C |
| CCN1C(=O)CCC1=O | 26 °C |
| N#CCC=CCC#N | 76 °C |

| Compound | melting point |
| --- | --- |
| OCc1cccc2c1OCCCO2 | 47 to 48 °C |
| S=C=Nc1c(Cl)cc(Cl)cc1Cl | 74 to 76 °C |
| CC(O)CN(CC(C)O)C(=O)COC(=O)c1ccccc1 (stereo not given) | 106 °C |
| C=CCCCCCCCCC(=O)OCC | -38 °C |
| OCC1OC(SCCc2ccccc2)C(O)C(O)C1O (stereo not given) | 100 °C |
| CCCCC(C)CC(O)C=CC1C(O)CC(=O)C1CCCCC=CC(=O)O (stereo not given) | 97 °C |
| CN(CC(=O)O)CC(=O)O | 218 to 221 °C |
| COC(=O)c1cc(C)nn1C(=O)OC | 111 to 112 °C |
| Cc1ccc(C)c(O)c1C | 58 °C |
| N#Cc1c(C2CCCCC2)[nH]c(=S)[nH]c1=O | 300 °C |
| C=C1CC(=CC)C(=O)OC2CCN3CC=C(COC(=O)C1(C)O)C23 (stereo not given) | 218 °C |
| O=C1C=C(Cl)C(=O)O1 | 33 °C |
| Nc1ccc(N=Nc2ccccc2)cc1 | 127 °C |
| NC1CCCCCCC1 | -48 °C |
| O=[N+]([O-])c1c(Cl)ncnc1Cl | 102 °C |
| Fc1c(F)c(F)c(Br)c(F)c1F | -31 °C |
| COc1cc(C(c2c(O)cc(C)oc2=O)c2c(O)cc(C)oc2=O)ccc1O | 205 to 208 °C |
| OCC(F)(F)C(F)(F)C(F)(F)C(F)(F)C(F)(F)C(F)(F)C(F)(F)F | 43 to 47 °C |
| CC(=CC(=O)O)C(F)(F)F | 28 to 30 °C |
| CSc1nc(N)n[nH]1 | 130 to 133 °C |
| CCCCC(N)C(=O)O (stereo not given) | 300 °C |
| CCCC(C)(O)CCC | -82 °C |
| COc1cc2c(cc1C(C)C)C(C(=O)O)C2 (stereo not given) | 86 °C |

| Compound | melting point |
| --- | --- |
| OOC1CCCc2ccccc21 (stereo not given) | 56 °C |
| CSc1nc(N)nc(C2CC2)n1 | 157 to 159 °C |
| CC(=O)N1CCCC(C)C1 (stereo not given) | -13.6 °C |
| CC(C)N1C(=O)N(c2ccccc2)CSC1=NC(C)(C)C | 105 °C |
| CCO[Si](C)(C)OCC | -70 °C |
| C[C@]12CCC(=O)C=C1C(=O)C[C@@H]1[C@@H]2CC[C@@]2(C)[C@H]1CCC21OCCO1 | 162 °C |
| C/C=C/C(=O)O | 72 °C |
| O=C(Cl)c1ccc(Cl)nc1 | 50 °C |
| Cc1ccc(NC(=O)CCC2C(=O)C3(C)CCC2C3(C)C)cc1 (stereo not given) | 114 °C |
| O=C(c1ccc(C(=O)C(Cl)(Cl)Cl)cc1)C(Cl)Cl | 136 °C |
| N#CC(C=O)c1ccc(Cl)cc1 (stereo not given) | 157 °C |
| c1c2c(cc3c1CCCN3)NCCC2 | 113 °C |
| Cc1cccc(NN=C2C(=O)NN=C2C(F)(F)F)c1 | 155 °C |
| COC(=O)C1C(=O)C(C(=O)OC)C2c3ccccc3C1C(C(=O)OC)C(O)C2C(=O)OC (stereo not given) | 92.2 °C |
| O=C(O)c1cnccc1C(F)(F)F | 150 °C |
| O=[N+]([O-])c1cc(CCBr)c([N+](=O)[O-])cc1CCBr | 123 °C |
| C#CCC1(OC(N)=O)CCCCC1 | 99 °C |
| CC=Cc1ccc2c(c1)OCO2 | 8.2 °C |
| COc1ccc(Br)cc1CC(NC(=O)OC(C)(C)C)C(=O)O (stereo not given) | 132 °C |
| CS(=O)c1cccc(CC(=O)O)c1 (stereo not given) | 111 °C |
| COc1ccc2c(c1OC)C(=O)OC2C1c2c(cc3c(c2OC)OCO3)CCN1C (stereo not given) | 176 °C |
| Cc1c(NC(=O)C(C)N(C)C)c(=O)n(-c2ccccc2)n1C (stereo not given) | 181 °C |
| O=C(O)CCc1c(Cl)cccc1Cl | 95 to 97 °C |

Other lines, results leading:

| melting point | Compound |
| --- | --- |
| 73.5 °C | CCOCOC(=O)c1ccccc1Nc1c(Cl)ccc(C)c1Cl |
| 25 °C | O=C1CCc2ccccc2O1 |
| 178 to 179 °C | COc1cccc(/N=C(\C)c2c(O)c3ccccc3n(-c3ccccc3)c2=O)c1 |
| 179 °C | CN(C)CCc1c[nH]c2ccc(Cn3cncn3)cc12 |
| 177 to 179 °C | COc1ccc(-c2cn3c(n2)sc2ccccc23)cc1 |
| 79 to 79.6 °C | CC(=O)/C=C1\Cc2ccccc21 |
| 48 °C | COC(=O)c1ccccc1CC#N |
| 120 °C | COc1cc(C(c2ccc(C)s2)c2ccc(C)s2)c([N+](=O)[O-])cc1OC |
| 251 to 253 °C | O=C1Nc2ccc(Br)cc2C1=O |
| 72 to 82 °C | CC1(C)c2ccccc2NC1C(=O)O (stereo not given) |
| 167 °C | CC(=O)OCCN(CCC#N)c1ccc(N=Nc2nc3ccc([N+](=O)[O-])cc3s2)cc1 |
| 283 °C | Nc1nn2c(C(F)(F)F)cc(=O)[nH]c2c1/N=N/c1ccccc1 |
| 76 °C | O=C1Cc2cc([N+](=O)[O-])ccc21 |
| 32 to 34 °C | NCc1ccc2occc2c1 |
| 164 °C | O=C(O)C(Cc1cc(I)c(O)c(I)c1)c1ccccc1 (stereo not given) |
| 88 °C | Cc1ccc(C(C)CC(=O)C=Cc2ccccc2)cc1 (stereo not given) |
| 156 °C | O=C1CCC(=O)N1c1ccccc1 |
| 305 to 306 °C | Nc1nn2c(C(F)(F)F)cc(=O)[nH]c2c1/N=N/c1cccc(F)c1 |
| 139 to 141 °C | O=Cc1cccn1S(=O)(=O)c1ccccc1[N+](=O)[O-] |

| melting point | Compound |
| --- | --- |
| 70 °C | COC(=O)c1cc2ccccc2s1 |
| 212 to 214 °C | COc1ccc2oc(C(=O)O)cc2c1 |
| 391 to 394 °C | O=C1c2cc3ccccc3cc2C(=O)c2cc3ccccc3cc21 |
| 300 °C | O=C1c2ccc(O)cc2C(=O)c2ccc(O)cc21 |
| 108 to 111 °C | CC1(C)N=C(c2ccccc2)C=[N+]1[O-] |
| 237 to 240 °C | Sc1nnc(-c2ccco2)n1-c1ccc2c(c1)OCCO2 |
| 204 to 206 °C | COc1ccccc1C1CCN(c2ccc(C=CC(=O)O)cc2[N+](=O)[O-])CC1 |
| 79.5 to 81 °C | Cn1ccc(-c2ccc(Br)cc2)n1 |
| 157 °C | O=C(O)Cc1ccccc1Nc1c(Cl)cccc1Cl |
| 138 to 139 °C | C=CCNC(=S)Nc1sc2c(c1C(=O)OCC)CCN(Cc1ccccc1)C2 |
| 151 to 152 °C | O=C1C2ON(c3ccccc3)C(c3ccccc3)C2C(=O)N1c1ccccc1 (stereo not given) |
| -51.6 °C | CCCOC(=O)c1ccccc1 |
| 177 °C | CCOc1ccc(-c2nnc3n2NC(c2ccccc2O)S3)cc1 (stereo not given) |
| 138 °C | O=c1[nH]nc(-c2ccccc2)c(=S)n1-c1ccc(F)c(Cl)c1 |
| 160 °C | Cc1ccc(Nc2ccc([N+](=O)[O-])cc2N)cc1 |
| 290 °C | Cc1cc(C2(c3ccc(O)c(C)c3)OS(=O)(=O)c3ccccc32)ccc1O |
| 153 to 155 °C | NNC(=O)c1ccc(-c2ccccc2F)cc1 |
| 279 °C | Cn1c(=O)c(C2=NNC(=O)C2=C2C(=O)Nc3ccccc32)c(O)c2ccccc21 |
| 89 to 90 °C | O=S(=O)(Cl)c1ccc(Oc2ccccc2Cl)cc1 |

| melting point | Compound |
| --- | --- |
| 87 °C | Cc1ccc(C(c2ccc(C)o2)c2ccccc2C#N)o1 |
| 177 °C | Cc1cc(N=Nc2ccc(N)cc2)c(C(C)C)cc1N=Nc1ccc(N)cc1 |
| -43.1 °C | CCC=Cc1ccccc1 |
| 328 °C | O=C(Nc1ccc(N=Nc2ccc([N+]([O-])=Nc3ccc(NC(=O)c4ccccc4)cc3)cc2)cc1)c1ccccc1 |
| 210 °C | Clc1cc(Cl)c2c(oc3ccc(Cl)c(Cl)c32)c1Cl |
| 38 to 41 °C | CCOC(=O)c1cc(-c2cccs2)n(C)n1 |
| 163 °C | COc1cc(OC)nc(Sc2cccc3c2C(=O)OC3C)n1 (stereo not given) |
| 135 to 138 °C | CCOC(=O)c1c(NC(=S)NCc2ccccc2)sc2c1CCN(Cc1ccccc1)C2 |
| 99 to 102 °C | OCc1cc(-c2ccccc2)on1 |
| 13.5 °C | O=C(CCc1ccccc1)CCc1ccccc1 |
| 149 °C | Cc1nc(/C(C#N)=C/c2ccc(N(C)C)cc2)sc1/N=N/c1ccc(F)cc1 |
| 200 to 202 °C | Cc1ccc(C2C(C#N)=C(N)N3C(=C2C#N)Sc2ccccc23)cc1 (stereo not given) |
| 105 °C | Cc1c(C#N)c2ccccc2n1C |
| 147 °C | Cn1cc(C(=O)Nc2ccc(F)cc2-c2ccc(Cl)c(Cl)c2)c(C(F)F)n1 |
| 280 to 281 °C | N#Cc1c(C(F)(F)F)cc(-c2cccnc2)[nH]c1=O |
| 261 to 264 °C | Nc1nc(-c2ccc3c(c2)Cc2ccccc2-3)cs1 |
| 205 °C | O=[N+]([O-])c1ccc(NN=Cc2cccc3c(Br)ccc([N+](=O)[O-])c23)cc1 |
| 140 °C | ClCc1c2ccccc2cc2ccccc12 |
